According to ChEMBL document CHEMBL1201862, “PubChem BioAssay data set” (2004):
Activity calls are given as the source filed them.

Legend:
Bcl-2-related protein A1 [1] = molecular target: T1, Bcl-2-related protein A1 (Mus musculus, UniProt Q07440); experiment: Bfl-1 binding inhibitors, SAR follow-up, biochemical, fluorescence polarization (AID 1070)
T1 sequence (Q07440 whole entry): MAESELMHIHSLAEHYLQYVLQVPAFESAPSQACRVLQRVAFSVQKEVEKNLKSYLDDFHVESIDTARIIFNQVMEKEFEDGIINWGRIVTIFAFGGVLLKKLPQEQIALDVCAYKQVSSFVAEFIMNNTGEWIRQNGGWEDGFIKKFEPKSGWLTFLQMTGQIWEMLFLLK

Bcl-2-related protein A1 [2] = molecular target: T1, Bcl-2-related protein A1; experiment: Bfl-1 inhibitors blocking BH3 peptide binding, confirmation, biochemical, TR-FRET, mouse Bfl-1 (AID 621);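 further: TR-FRET binding of GST-Bfl-1 to FITC-labelled Bid peptide via terbium antibody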
[3] = HepG2 cell cytotoxicity, dose response, cytotoxicity control, ATP luminescence, cherry-pick, activator set 2 (AID 1053143); type: functional, cell-based
Beta-lactamase [4] = molecular target: T2, Beta-lactamase (Pseudomonas aeruginosa, UniProt Q79MP6); experiment: […] counterscreen for selective VIM-2 inhibitors: dose response biochemical high throughput screening assay to identify inhibitors of IMP-1 metallo-beta-lactamase.
T2 sequence (Q79MP6 whole entry): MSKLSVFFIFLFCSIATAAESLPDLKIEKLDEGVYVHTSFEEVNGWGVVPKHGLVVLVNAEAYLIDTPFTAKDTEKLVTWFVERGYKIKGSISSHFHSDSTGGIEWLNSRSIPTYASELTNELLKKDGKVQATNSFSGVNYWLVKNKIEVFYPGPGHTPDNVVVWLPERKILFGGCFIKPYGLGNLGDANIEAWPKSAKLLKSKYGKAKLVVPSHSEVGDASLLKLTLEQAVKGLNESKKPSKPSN

Beta-lactamase [5] = molecular target: T2, Beta-lactamase; experiment: IMP-1 metallo-beta-lactamase inhibitors, dose response, selectivity assay for VIM-2 inhibitor project, biochemical, epi-absorbance (AID 1920)
Beta-lactamase [6] = molecular target: Beta-lactamase (Salmonella choleraesuis (strain SC-B67), UniProt Q5J463); experiment: Epi-absorbance-based counterscreen for selective VIM-2 inhibitors: dose response biochemical high throughput screening assay to identify inhibitors of TEM-1 serine-beta-lactamase.
Sequence of Beta-lactamase (Salmonella choleraesuis (strain SC-B67), UniProt Q5J463) (Q5J463 whole entry): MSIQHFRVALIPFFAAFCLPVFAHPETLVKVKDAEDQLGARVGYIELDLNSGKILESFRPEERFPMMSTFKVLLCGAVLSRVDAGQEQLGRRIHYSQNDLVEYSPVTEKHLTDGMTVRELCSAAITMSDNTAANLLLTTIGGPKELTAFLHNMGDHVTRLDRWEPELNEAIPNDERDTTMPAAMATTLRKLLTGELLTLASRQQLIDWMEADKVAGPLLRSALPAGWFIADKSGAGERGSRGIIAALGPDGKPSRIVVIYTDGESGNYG

cells [7] = type: functional, cell-based
cells [8] = type: functional, cell-based; remark: listed apart in the source
[9] = molecular target: Fructose-bisphosphate aldolase (Mycobacterium tuberculosis, UniProt P9WQA3); experiment: Fluorescence-based biochemical high throughput dose response assay for inhibitors of the fructose-bisphosphate aldolase (FBA) of M. tuberculosis.; type: functional
Sequence of Fructose-bisphosphate aldolase (P9WQA3 whole entry): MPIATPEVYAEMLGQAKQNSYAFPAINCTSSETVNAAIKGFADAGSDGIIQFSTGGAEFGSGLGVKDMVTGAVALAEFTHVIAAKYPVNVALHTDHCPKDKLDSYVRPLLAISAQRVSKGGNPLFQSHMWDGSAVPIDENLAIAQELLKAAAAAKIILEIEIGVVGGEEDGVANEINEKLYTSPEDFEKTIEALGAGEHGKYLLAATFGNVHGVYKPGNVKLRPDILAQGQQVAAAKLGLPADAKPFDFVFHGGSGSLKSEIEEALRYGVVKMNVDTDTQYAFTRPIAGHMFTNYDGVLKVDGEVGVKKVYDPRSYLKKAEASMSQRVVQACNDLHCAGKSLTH

[10] = molecular target: T3, Sentrin-specific protease 6 (Homo sapiens, UniProt Q9GZR1); type: functional;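 further: Luminescence-based dose-response confirmatory assay of SENP6 inhibition, following up an ultra-high-throughput screen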
T3 sequence (Q9GZR1 whole entry): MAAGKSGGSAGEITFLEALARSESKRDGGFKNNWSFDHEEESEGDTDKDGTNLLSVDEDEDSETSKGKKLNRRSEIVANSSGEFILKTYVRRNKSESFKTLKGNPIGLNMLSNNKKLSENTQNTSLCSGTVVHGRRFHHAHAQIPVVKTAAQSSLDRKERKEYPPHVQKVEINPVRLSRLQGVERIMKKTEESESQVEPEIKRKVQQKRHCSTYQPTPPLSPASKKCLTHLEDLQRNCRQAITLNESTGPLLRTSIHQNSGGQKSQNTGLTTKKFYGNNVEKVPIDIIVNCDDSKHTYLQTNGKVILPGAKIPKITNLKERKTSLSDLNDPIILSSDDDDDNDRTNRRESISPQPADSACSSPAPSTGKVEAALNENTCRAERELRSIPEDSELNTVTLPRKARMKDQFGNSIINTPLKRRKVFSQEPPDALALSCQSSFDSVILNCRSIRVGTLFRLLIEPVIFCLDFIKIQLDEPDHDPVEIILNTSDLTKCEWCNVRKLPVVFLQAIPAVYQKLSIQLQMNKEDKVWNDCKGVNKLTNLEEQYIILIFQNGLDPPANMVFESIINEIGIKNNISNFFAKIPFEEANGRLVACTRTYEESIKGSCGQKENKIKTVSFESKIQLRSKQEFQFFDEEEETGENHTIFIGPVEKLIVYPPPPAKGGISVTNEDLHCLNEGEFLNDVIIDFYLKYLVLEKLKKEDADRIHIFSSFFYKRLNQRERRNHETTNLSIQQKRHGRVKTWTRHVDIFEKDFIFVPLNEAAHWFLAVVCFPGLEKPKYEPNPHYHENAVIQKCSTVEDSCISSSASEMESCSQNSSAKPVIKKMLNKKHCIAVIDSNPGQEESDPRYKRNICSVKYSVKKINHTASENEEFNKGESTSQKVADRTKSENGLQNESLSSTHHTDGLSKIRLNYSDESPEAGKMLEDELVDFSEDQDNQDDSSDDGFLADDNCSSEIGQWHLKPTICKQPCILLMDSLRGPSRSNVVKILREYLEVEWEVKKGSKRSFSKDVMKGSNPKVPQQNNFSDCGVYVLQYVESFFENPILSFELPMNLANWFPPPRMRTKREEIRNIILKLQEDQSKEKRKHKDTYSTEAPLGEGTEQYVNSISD

Caspase-3 = molecular target: T4, Caspase-3 (Homo sapiens, UniProt P42574); type: functional;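 further: Dose-response selectivity test against caspase-3 for candidate inhibitors of sentrin-specific proteases (SENPs)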
T4 sequence (P42574 whole entry): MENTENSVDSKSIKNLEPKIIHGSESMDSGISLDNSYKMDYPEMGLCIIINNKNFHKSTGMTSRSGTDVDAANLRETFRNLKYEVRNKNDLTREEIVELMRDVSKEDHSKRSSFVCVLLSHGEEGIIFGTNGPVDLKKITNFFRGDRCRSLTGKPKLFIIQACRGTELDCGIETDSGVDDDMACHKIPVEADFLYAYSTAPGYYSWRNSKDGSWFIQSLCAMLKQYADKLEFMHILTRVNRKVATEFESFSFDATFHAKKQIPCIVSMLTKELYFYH

[11] = molecular target: T5, Sentrin-specific protease 7 (Homo sapiens, UniProt Q9BQF6); type: functional;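 further: Luminescence-based dose-response confirmation of ultra-high-throughput screening hits, measuring inhibition of SENP7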
T5 sequence (Q9BQF6 whole entry): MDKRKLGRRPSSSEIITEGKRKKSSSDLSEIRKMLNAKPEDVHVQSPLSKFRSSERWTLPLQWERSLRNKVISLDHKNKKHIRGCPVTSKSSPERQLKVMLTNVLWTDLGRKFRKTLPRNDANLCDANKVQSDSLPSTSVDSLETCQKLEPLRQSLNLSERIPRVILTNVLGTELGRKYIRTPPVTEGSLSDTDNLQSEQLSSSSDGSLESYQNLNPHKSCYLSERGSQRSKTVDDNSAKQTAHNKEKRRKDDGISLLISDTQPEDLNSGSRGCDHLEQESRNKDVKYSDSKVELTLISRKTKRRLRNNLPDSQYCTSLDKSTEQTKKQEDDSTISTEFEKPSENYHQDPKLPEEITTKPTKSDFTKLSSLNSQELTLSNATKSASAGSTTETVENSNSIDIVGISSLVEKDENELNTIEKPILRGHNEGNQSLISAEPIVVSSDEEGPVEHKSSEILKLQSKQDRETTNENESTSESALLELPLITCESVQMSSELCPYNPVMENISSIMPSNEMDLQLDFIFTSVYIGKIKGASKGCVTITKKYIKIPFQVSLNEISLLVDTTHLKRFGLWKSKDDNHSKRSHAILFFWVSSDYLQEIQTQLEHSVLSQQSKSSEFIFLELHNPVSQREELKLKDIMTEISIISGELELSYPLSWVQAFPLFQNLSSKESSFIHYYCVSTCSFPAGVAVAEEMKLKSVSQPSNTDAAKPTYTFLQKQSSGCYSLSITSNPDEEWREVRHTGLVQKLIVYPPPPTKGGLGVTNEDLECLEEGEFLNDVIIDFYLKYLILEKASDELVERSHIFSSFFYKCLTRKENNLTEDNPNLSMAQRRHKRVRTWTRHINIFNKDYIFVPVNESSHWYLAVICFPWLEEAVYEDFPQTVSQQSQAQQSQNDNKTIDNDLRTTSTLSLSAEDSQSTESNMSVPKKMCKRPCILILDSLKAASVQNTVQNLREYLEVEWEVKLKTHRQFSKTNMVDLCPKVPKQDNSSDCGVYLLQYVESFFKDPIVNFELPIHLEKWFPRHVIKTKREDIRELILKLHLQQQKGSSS

[12] = molecular target: T6, Sentrin-specific protease 8 (Homo sapiens, UniProt Q96LD8); type: functional;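 further: luminescence read-out of SENP8 inhibition, dose-response confirmation following an ultra-high-throughput screen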
T6 sequence (Q96LD8 whole entry): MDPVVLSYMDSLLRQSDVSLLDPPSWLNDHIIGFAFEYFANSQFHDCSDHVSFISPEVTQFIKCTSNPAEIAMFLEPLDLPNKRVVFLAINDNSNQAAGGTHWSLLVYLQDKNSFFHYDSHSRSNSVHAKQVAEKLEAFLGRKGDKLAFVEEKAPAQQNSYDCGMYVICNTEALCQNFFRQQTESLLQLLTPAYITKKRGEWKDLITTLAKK

[13] = molecular target: T7, Trace amine-associated receptor 1 (Homo sapiens, UniProt Q96RJ0); experiment: Counterscreen for antagonists of the human trace amine associated receptor 1 (hTAAR1): Fluorescence-based cell-based high throughput dose response assay to identify TAAR1 Agonists.; type: functional
T7 sequence (Q96RJ0 whole entry): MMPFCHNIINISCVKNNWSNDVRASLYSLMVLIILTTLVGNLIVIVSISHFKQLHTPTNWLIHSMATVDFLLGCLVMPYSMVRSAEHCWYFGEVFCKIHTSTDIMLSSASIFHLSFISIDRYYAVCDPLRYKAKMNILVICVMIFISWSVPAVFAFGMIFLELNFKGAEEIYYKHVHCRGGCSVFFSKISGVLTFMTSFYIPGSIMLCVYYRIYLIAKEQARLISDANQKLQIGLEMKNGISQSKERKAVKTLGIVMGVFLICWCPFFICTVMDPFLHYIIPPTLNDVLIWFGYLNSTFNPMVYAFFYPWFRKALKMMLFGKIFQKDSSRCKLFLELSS

[14] = Counterscreen for […] of the human trace amine associated receptor 1 (TAAR1): Fluorescence-based cell-based high throughput dose response assay to identify nonselective Ga16 agonists.; type: functional
[15] = Counterscreen for antagonists of the human trace amine associated receptor 1 (hTAAR1): Fluorescence-based cell-based high throughput dose response assay to identify nonselective Ga16 antagonists.; type: functional
[16] = molecular target: T7, Trace amine-associated receptor 1; experiment: Fluorescence-based cell-based high throughput dose response assay to identify antagonists of the human trace amine associated receptor 1 (TAAR1).; type: functional
[17] = molecular target: T7, Trace amine-associated receptor 1; experiment: Fluorescence-based cell-based high throughput dose response assay to identify agonists of the human trace amine associated receptor 1 (TAAR1).; type: functional
cells [18] = type: functional, cell-based; remark: listed apart in the source
[19] = molecular target: T7, Trace amine-associated receptor 1; experiment: Counterscreen for agonists of the human trace amine associated receptor 1 (hTAAR1): Fluorescence-based cell-based high throughput dose response assay to identify hTAAR1 agonist that also desensitize TAAR1 receptor response.; type: functional
cells [20] = type: functional, cell-based; remark: listed apart in the source
[21] = molecular target: Ras and Rab interactor 1/Tyrosine-protein kinase ABL1 (Homo sapiens, UniProt P00519+Q13671); type: functional;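 further: biochemical TR-FRET dose-response test measuring inhibition of binding between Rin1 and Abl proteins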
Sequence of Ras and Rab interactor 1/Tyrosine-protein kinase ABL1 (P00519 whole entry): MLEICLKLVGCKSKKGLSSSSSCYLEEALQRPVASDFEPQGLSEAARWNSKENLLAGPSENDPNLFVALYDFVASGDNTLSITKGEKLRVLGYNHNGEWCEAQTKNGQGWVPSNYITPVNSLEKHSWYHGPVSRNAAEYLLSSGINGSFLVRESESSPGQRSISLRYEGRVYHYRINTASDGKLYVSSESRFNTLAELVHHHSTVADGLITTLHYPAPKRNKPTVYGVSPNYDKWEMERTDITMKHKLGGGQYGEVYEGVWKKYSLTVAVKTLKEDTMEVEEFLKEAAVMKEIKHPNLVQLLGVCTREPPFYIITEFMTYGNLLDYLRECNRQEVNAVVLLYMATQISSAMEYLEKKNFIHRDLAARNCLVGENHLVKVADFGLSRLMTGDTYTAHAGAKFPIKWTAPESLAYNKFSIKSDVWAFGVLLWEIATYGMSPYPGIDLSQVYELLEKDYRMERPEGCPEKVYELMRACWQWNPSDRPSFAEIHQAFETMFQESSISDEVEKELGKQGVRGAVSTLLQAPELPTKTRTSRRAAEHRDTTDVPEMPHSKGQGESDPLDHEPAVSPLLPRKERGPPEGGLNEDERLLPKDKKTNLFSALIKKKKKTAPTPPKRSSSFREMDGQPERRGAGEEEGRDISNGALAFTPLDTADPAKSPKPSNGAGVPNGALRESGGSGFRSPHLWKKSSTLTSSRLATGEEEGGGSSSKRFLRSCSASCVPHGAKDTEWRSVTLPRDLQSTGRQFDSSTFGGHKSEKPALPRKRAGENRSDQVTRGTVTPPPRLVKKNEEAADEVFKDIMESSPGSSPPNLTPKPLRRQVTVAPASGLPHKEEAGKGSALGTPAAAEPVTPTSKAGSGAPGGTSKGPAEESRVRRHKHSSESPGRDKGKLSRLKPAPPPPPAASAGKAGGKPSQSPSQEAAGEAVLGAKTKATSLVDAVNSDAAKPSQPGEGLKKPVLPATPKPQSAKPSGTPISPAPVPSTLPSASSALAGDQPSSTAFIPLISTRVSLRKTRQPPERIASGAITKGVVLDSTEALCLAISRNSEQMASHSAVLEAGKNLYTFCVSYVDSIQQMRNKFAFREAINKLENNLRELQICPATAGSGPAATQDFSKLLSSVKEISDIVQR
Sequence of Ras and Rab interactor 1/Tyrosine-protein kinase ABL1 (Q13671 whole entry): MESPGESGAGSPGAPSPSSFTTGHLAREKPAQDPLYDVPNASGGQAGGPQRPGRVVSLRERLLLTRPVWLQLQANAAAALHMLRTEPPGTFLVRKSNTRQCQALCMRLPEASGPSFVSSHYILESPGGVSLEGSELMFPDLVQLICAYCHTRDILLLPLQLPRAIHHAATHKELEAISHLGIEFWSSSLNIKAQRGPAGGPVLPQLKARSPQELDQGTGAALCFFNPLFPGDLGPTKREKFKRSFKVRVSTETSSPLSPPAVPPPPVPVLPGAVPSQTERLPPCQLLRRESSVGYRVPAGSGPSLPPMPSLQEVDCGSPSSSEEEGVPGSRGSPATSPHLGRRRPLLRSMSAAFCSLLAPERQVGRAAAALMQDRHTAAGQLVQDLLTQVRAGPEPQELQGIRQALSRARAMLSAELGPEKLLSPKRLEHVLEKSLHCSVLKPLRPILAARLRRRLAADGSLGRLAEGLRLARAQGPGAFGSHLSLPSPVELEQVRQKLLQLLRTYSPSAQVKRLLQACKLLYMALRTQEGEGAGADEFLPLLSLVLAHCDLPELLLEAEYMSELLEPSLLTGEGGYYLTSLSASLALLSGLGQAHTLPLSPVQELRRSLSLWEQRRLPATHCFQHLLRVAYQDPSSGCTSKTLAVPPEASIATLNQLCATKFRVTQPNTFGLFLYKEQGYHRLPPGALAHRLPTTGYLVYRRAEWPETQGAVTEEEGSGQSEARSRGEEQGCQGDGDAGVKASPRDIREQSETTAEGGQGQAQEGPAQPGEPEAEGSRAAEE

[22] = cytotoxicity in OVCAR8 ovarian cancer cells, dose response, PAX8 project, cell-based, plate reader, dry powder samples (AID 743197); type: functional; conditions: OVCAR-8
Paired box protein Pax-8 = Paired box protein Pax-8 (Homo sapiens, UniProt Q06710); experiment: inhibitors of PAX8-driven TPO luciferase reporter, dose response, RMG-I cells, cherry-pick (AID 687027); type: functional, cell-based;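 further: luciferase reporter driven by Pax8 target thyroperoxidase promoter measured by SteadyGlo luminescence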
Sequence of Paired box protein Pax-8 (Q06710 whole entry): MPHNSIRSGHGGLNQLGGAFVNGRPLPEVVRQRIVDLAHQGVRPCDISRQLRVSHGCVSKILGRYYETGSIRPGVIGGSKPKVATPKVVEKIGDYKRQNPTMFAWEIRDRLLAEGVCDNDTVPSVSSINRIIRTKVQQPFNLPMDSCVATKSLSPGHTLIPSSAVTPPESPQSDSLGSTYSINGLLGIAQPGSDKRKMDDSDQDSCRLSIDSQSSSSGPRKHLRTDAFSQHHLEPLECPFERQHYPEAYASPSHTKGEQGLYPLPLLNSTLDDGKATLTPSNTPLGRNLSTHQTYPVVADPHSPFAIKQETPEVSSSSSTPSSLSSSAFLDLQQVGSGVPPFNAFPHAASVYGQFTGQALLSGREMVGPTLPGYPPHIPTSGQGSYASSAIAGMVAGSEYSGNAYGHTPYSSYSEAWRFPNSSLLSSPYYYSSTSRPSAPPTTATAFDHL

[23] = T. cruzi growth inhibition in host cells, dose response, cell-based, plate reader, dry powder, set 2 (AID 652275); type: functional

COc1ncccc1-c1nnn(-c2ccc(F)cc2)n1
IC50 (Bcl-2-related protein A1 [1]): > 100 µM (not active) | IC50 (Bcl-2-related protein A1 [2]): > 100 µM (not active) | AC50 [3]: 26 µM (active)

Cc1nn(CCc2nnc(S)n2-c2cccc(Cl)c2)c(C)c1[N+](=O)[O-]
IC50 (Beta-lactamase [4]): > 59.6 µM (inactive) | IC50 (Beta-lactamase [5]): > 59.6 µM (inactive) | IC50 (Beta-lactamase [6]): > 59.6 µM (inactive)

CC(C)Cn1c(S)nnc1-c1ccco1
IC50 (Beta-lactamase [4]): > 59.6 µM (inactive) | IC50 (Beta-lactamase [5]): > 59.6 µM (inactive) | IC50 (Beta-lactamase [6]): > 59.6 µM (inactive)

CCOc1ccc2oc(C(=O)Nc3cc(C)ccn3)c(C)c2c1
AC50 [3]: 26 µM (active)

CCCCn1c(=O)[nH]c(=O)c2c(C(=O)OCC)cc(-c3cccs3)nc21
EC50 (cells [7]): > 350 µM (not active) | EC50 (cells [8]): > 350 µM (not active) | IC50 [9]: 0.582 µM (active)

S=C(c1ccc(OCc2ccccc2)cc1)N1CCCC1
IC50 [10]: 11.1 µM (active) | IC50 (Caspase-3): 8.38 µM (active) | IC50 [11]: 14 µM (active) | IC50 [9]: > 9.98 µM (inactive) | IC50 [12]: 3.69 µM (active)

O=C(NCCn1cc(SCc2ccccc2F)c2ccccc21)c1c(F)cccc1F
EC50 [13]: > 29.9 µM (inactive) | EC50 [14]: > 29.9 µM (inactive) | IC50 [15]: 38.4 µM (inactive) | IC50 [16]: 3.49 µM (active)

O=C(O)[C@H]1CCCC[C@H]1C(=O)NCCc1ccccc1
EC50 [17]: 0.37 µM (active) | EC50 (cells [18]): > 29.9 µM (inactive) | IC50 [19]: 7.35 µM (active) | IC50 (cells [20]): > 29.9 µM (inactive)

Cc1cc2nc3n(c2cc1C)CC1CC(C(=O)NCCc2cccs2)N(C)C31 (stereo not drawn)
EC50 [17]: 2 µM (active) | EC50 (cells [18]): > 29.9 µM (inactive) | IC50 [19]: 8.5 µM (active) | IC50 (cells [20]): > 29.9 µM (inactive)

COc1ccc(-n2nnnc2C(C2CC2)N2CCC(n3c(O)nc4ccccc43)CC2)cc1 (stereo not drawn)
EC50 [13]: 22.4 µM (inactive) | EC50 [14]: > 29.9 µM (inactive) | IC50 [21]: 19.8 µM (inactive) | IC50 [15]: > 29.9 µM (inactive) | IC50 [16]: > 9.96 µM (active)

C[C@@H]1CCCCO[C@H](CN(C)C(=O)Nc2ccc(C(F)(F)F)cc2)[C@@H](C)CN([C@@H](C)CO)C(=O)c2cc(NS(=O)(=O)c3ccc(F)cc3)ccc2O1
AC50 [22]: > 70 µM (inactive) | AC50 (Paired box protein Pax-8): 4.88 µM (active)

C[C@H]1CN([C@@H](C)CO)C(=O)c2cccc(NC(=O)c3ccncc3)c2O[C@@H]1CN(C)Cc1cccc(Cl)c1
AC50 [23]: 0.0155 µM (active)
